According to ChEMBL document CHEMBL1201862, “PubChem BioAssay data set” (2004):
Active and inactive are the calls of the source.

Legend:
[1] = target: T1, Methionyl-tRNA synthetase, putative (Trypanosoma brucei brucei, UniProt Q38C91); format: functional, Trypanosoma brucei brucei strain 927/4 GUTat10.1
T1 sequence (Q38C91 whole entry): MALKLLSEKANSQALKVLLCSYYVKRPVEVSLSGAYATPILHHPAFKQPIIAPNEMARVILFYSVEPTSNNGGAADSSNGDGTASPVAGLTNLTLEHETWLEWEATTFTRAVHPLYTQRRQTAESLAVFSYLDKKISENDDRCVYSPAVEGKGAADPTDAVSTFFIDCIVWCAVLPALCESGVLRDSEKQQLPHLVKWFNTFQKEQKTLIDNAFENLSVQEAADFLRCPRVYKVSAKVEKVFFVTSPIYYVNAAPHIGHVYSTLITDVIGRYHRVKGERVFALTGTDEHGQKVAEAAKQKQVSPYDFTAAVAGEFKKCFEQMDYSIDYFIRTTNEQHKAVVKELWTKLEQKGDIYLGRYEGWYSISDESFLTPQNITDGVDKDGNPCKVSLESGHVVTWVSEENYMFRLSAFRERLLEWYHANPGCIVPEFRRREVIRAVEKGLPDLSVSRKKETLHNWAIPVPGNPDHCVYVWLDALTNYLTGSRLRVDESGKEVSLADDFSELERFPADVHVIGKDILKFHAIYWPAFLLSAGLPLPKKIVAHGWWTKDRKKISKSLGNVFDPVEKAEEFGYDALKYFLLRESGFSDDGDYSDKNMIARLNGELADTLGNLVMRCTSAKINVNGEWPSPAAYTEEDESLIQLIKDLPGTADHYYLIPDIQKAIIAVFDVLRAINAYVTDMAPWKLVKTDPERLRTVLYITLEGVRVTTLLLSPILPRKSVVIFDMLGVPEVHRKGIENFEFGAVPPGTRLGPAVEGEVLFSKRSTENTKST

[2] = target: T1, Methionyl-tRNA synthetase, putative; format: functional, Trypanosoma brucei brucei strain 927/4 GUTat10.1; remark: listed apart in the source
[3] = Counterscreen for inhibitors of Trypanosoma brucei methionyl tRNA synthetase (MetRS): Luminescence-based cell-based high throughput dose response assay to identify compounds that are cytotoxic to Jurkat human T lymphocyte cells.; format: functional
[4] = target: T2, Trace amine-associated receptor 1 (Homo sapiens, UniProt Q96RJ0); assay: Counterscreen for agonists of the human trace amine associated receptor 1 (hTAAR1): Fluorescence-based cell-based high throughput dose response assay to identify hTAAR1 agonist that also desensitize TAAR1 receptor response.; format: functional
T2 sequence (Q96RJ0 whole entry): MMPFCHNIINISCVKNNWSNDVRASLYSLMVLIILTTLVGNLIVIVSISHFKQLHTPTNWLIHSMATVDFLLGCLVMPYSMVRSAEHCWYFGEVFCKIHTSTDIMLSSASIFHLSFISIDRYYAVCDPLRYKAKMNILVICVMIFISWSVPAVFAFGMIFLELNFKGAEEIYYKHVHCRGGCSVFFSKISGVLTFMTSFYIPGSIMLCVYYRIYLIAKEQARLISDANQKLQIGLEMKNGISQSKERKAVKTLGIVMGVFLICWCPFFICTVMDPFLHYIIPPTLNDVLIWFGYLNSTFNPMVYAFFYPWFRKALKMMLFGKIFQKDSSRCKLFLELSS

cells [5] = format: functional, cell-based
cells [6] = format: functional, cell-based; remark: listed apart in the source
[7] = target: T2, Trace amine-associated receptor 1; assay: Fluorescence-based cell-based high throughput dose response assay to identify agonists of the human trace amine associated receptor 1 (TAAR1).; format: functional
[8] = target: T3, Nuclear receptor subfamily 0 group B member 1 (Homo sapiens, UniProt P51843); format: functional, cell-based;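 further: HEK293T cells transfected with SF-1 and DAX-1 plus StAR promoter luciferase reporter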
T3 sequence (P51843 whole entry): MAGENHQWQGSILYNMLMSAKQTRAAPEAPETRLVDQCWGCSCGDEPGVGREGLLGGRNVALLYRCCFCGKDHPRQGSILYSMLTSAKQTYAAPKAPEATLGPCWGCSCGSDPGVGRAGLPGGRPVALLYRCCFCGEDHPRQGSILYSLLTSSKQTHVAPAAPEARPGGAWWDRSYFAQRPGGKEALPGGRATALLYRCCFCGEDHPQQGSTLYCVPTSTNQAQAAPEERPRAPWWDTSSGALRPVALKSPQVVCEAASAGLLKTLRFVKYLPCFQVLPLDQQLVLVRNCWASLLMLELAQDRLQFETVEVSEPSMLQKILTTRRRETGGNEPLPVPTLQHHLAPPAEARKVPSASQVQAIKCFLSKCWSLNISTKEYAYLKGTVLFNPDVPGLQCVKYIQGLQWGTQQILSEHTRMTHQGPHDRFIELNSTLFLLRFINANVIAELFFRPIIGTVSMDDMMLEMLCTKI

cells [9] = format: functional, cell-based; remark: listed apart in the source
Leucine aminopeptidase = target: T4, Leucine aminopeptidase (Plasmodium falciparum 3D7, UniProt Q8IL11); assay: P. falciparum M17LAP inhibitors, primary screen, biochemical, fluorogenic H-Leu-NHMec substrate, 1536-well (AID 1619); format: functional
T4 sequence (Q8IL11 whole entry): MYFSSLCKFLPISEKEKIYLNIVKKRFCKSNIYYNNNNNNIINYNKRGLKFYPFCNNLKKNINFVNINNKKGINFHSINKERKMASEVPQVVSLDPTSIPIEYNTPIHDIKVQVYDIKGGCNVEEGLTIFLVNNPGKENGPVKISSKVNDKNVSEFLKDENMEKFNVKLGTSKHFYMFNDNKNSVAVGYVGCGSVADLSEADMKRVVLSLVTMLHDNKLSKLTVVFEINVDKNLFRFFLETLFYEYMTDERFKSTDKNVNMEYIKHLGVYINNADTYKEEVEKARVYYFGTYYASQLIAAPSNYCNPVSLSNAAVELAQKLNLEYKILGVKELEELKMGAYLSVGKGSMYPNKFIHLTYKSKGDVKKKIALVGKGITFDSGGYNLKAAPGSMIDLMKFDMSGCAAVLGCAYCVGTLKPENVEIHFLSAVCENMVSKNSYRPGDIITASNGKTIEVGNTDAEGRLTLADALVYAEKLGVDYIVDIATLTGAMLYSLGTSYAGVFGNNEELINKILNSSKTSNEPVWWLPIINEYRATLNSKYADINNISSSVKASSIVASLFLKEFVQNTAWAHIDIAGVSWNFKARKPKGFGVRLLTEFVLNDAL

fMet-Leu-Phe receptor = target: T5, fMet-Leu-Phe receptor (Homo sapiens, UniProt P21462); assay: formyl peptide receptor binders – dose response (AID 519); format: functional
T5 sequence (P21462 whole entry): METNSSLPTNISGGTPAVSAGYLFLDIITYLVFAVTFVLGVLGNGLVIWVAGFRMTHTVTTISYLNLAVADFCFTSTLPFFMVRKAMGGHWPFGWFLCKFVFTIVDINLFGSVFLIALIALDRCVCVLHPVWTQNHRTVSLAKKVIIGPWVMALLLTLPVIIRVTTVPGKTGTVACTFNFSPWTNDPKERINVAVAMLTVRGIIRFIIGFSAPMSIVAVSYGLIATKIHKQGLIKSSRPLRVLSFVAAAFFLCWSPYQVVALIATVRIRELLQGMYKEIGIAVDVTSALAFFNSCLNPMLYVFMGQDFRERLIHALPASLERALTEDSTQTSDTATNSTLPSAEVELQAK

Genome polyprotein = Genome polyprotein (dengue virus type 2, UniProt P29990); assay: flavivirus cap methylation enzyme inhibition – biochemical, confirmation dose response, primary screen (AID 588689); format: functional
Sequence of Genome polyprotein (P29990 2492-3391 limits assumed): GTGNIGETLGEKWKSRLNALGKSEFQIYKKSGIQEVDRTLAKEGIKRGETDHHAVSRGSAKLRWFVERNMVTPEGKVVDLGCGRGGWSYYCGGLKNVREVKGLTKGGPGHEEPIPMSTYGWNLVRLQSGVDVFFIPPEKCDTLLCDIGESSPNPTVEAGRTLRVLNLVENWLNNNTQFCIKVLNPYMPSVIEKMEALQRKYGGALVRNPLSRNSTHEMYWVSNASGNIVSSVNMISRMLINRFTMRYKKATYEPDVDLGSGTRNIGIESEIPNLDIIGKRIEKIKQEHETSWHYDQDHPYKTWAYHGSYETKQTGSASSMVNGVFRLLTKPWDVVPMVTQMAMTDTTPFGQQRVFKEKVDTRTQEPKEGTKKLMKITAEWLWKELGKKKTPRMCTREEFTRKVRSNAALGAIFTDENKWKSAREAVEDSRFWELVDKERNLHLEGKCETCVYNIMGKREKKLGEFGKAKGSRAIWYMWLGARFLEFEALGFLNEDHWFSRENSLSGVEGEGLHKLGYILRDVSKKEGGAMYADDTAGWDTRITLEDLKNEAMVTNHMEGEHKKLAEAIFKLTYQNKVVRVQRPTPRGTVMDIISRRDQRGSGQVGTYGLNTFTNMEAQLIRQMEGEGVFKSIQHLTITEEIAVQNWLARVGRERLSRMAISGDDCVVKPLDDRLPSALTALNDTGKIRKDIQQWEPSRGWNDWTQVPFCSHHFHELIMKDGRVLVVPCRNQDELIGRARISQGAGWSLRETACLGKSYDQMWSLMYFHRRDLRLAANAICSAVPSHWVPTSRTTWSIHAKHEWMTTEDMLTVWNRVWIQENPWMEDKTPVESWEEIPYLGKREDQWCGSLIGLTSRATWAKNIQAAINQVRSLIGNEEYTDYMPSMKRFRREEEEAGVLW

cells [10] = assay: cells
[11] = target: T6, Oxysterols receptor LXR-beta (Homo sapiens, UniProt P55055); format: functional, cell-based;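 further: Cell-based luminescence dose-response assay of agonist activity at LXR, run as a confirmatory counterscreen to a daf-12 agonist screen; HEK293 cells with Gal4-LXR fusion and GAL4-driven luciferase reporter; agonist potency from rising luciferase signal of a Gal4-LXR reporter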
T6 sequence (P55055 whole entry): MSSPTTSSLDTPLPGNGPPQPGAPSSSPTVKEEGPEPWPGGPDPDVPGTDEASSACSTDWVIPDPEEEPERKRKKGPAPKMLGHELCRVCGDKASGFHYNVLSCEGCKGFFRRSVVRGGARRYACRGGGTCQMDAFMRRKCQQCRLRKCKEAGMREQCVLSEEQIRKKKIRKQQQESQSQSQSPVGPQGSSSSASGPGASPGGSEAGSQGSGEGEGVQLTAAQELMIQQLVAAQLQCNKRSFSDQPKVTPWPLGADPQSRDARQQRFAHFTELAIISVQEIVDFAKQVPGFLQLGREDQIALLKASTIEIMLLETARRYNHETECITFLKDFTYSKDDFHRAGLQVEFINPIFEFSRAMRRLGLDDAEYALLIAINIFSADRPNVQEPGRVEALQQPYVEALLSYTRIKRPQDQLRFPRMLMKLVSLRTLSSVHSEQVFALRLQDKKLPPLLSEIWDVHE

[12] = fluconazole-exposed Candida albicans growth modulators – fluorescence, retest, confirmation (AID 2467); format: functional, cell-based
[13] = NIH-3T3 fibroblast cytotoxicity, dose response, cytotoxicity control, cell-based, fluorescence, Alamar Blue, secondary assay (AID 2327); format: functional;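 further: NIH-3T3 mouse fibroblasts cultured with fluconazole at 8 µg/mL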
[14] = Luminescence Cell-Based Dose Response HTS to Identify Activators of Luciferase Translation or Activity in H4 […] Cells. [Related pubchem assays: 1829 (Project Summary), 1814 (Primary HTS)]; format: functional
H4 = assay: Luminescence Cell-Based Dose Response HTS to Identify Activators of 5'UTR Stem-Loop Driven Prion Protein mRNA Translation in H4 Neuroglioblastoma Cells. [Related pubchem assays: 1829 (Project Summary), 1814 (Primary HTS)]; format: functional; settings: Homo sapiens
[15] = target: T7, Heat shock factor protein 1 (Mus musculus, UniProt P38532); assay: decrease of HSF1-responsive luciferase luminescence – cell-based, NIH3T3, dose retest, confirmation (AID 2382); format: functional;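 further: NIH3T3 fibroblasts with HSF1-driven luciferase reporter stressed by proteasome inhibitor MG132; luminescence from HSF1-driven luciferase expression after 8 hours of MG132 stress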
T7 sequence (P38532 whole entry): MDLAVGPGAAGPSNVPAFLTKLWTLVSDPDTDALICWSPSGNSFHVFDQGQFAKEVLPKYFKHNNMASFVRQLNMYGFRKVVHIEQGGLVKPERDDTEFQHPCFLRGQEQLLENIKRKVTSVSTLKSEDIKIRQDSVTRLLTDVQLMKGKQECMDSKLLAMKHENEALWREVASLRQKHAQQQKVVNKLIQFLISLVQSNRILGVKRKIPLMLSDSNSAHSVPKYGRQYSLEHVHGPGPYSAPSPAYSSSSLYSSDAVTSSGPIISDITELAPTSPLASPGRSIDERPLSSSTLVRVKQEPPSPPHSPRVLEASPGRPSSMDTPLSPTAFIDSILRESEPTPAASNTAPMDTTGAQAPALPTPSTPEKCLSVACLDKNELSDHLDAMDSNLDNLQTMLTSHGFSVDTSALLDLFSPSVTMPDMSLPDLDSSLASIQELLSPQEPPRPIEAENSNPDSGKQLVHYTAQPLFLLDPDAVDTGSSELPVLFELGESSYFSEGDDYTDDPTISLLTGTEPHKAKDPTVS

[16] = P. falciparum Dd2 growth inhibitors, dose response, SYBR Green, cherry-picked samples (AID 1159567); format: functional, cell-based
[17] = toxicity to human hepatoma HepG2 cells – cell-based, cherry-picked samples, cytotoxicity control, dose response (AID 1159577); format: functional

Nc1cc(Oc2ccc(Cl)cc2Cl)nc(N)n1
IC50 [1]: 29.4 µM (inactive) | IC50 [2]: 22.8 µM (inactive) | IC50 [3]: 83.2 µM (inactive)

O=C(NCCc1ccccc1)C(c1ccncc1)N(C(=O)c1csnn1)C1CC1 (stereo unspecified)
IC50 [4]: 7.59 µM (active) | IC50 (cells [5]): > 29.9 µM (inactive) | EC50 (cells [6]): > 29.9 µM (inactive) | EC50 [7]: 2.11 µM (active)

O=C(Nc1ccc(N2CCCC2)cc1)c1cccc(F)c1
IC50 [8]: > 67.5 µM (inactive) | IC50 (cells [9]): > 67.5 µM (inactive)

Cc1ccc(C2C(C(=O)c3ccc(Br)cc3)=C(O)C(=O)N2Cc2ccco2)o1 (stereo unspecified)
IC50 (Leucine aminopeptidase): 66.4 µM (active) | Ki (fMet-Leu-Phe receptor): > 66.7 µM (inactive) | IC50 (Genome polyprotein): > 100 µM (active)

COc1ccc(-c2csc(-c3ccccc3)n2)c(OC)c1
EC50 (cells [10]): > 67.5 µM (inactive) | EC50 [11]: > 67.5 µM (inactive) | EC50 [12]: 6.64 µM (active) | EC50 [13]: > 160 µM (inactive)

O=C(NC1=NCCS1)c1sc2cc(F)ccc2c1Cl
EC50 (cells [10]): > 67.6 µM (inactive) | EC50 [11]: > 67.6 µM (inactive)

CCN1C(=O)C(CC(=O)Nc2ccc(OC)cc2)N(CCc2ccccc2)C1=S (stereo unspecified)
IC50 [1]: 23.5 µM (inactive) | IC50 [2]: 15 µM (inactive) | IC50 [3]: 38.9 µM (inactive)

Cc1cc(C2=NN=C(NCCc3ccccc3)SC2)c(C)n1CC1CCCO1 (stereo unspecified)
EC50 [14]: 61.9 µM (active) | IC50 [4]: 2.84 µM (active) | IC50 (cells [5]): > 29.9 µM (inactive) | EC50 (cells [6]): > 29.9 µM (inactive) | EC50 (H4): 13 µM (active) | EC50 [7]: 0.553 µM (active)

Clc1ccc(Cc2nn3c(-c4ccncc4)nnc3s2)cc1
Ki (fMet-Leu-Phe receptor): > 66.7 µM (inactive)

Cc1ccc2[nH]c(-c3sc4nc(C)cc(C)c4c3N)nc2c1
EC50 (cells [10]): > 67.5 µM (inactive) | EC50 [11]: > 67.5 µM (inactive) | EC50 [15]: 21 µM (active)

CC(C)OC(=O)c1cc(NC(=O)C2C3CCC(O3)C2C(=O)O)cc(C(=O)OC(C)C)c1 (stereo unspecified)
Ki (fMet-Leu-Phe receptor): 41.5 µM (inactive)

O=C(c1c(Cl)nc2sccn12)N(C(=O)c1c(Cl)nc2sccn12)c1ccc(Cl)cn1
EC50 (cells [10]): > 67.5 µM (inactive) | EC50 [11]: > 67.5 µM (inactive)

O=c1[nH]cnc2nc(-c3ccc(N(CCCl)CCCl)cc3)[nH]c12
IC50 [8]: > 67.6 µM (inactive)

Oc1[nH]cnc2nc(-c3ccc(N(CCCl)CCCl)cc3)nc1-2
IC50 (cells [9]): > 67.6 µM (inactive)

NC(=O)c1cccc(-c2ccnc3c2CC(C(=O)Nc2ccc(Cl)cc2)O3)c1 (stereo unspecified)
IC50 [1]: 18.7 µM (inactive) | IC50 [2]: 8.03 µM (active) | IC50 [3]: 58.1 µM (inactive)

CCCC(=O)N1CCCC(c2cc(C(=O)Nc3ccc4c(c3)OCO4)no2)C1 (stereo unspecified)
IC50 [8]: > 67.6 µM (inactive) | IC50 (cells [9]): > 67.6 µM (inactive)

COC(=O)/C(=C\Nc1ccccc1)NC(=O)c1ccc(Cl)cc1Cl
IC50 [1]: 6.89 µM (active) | IC50 [2]: 2.71 µM (active) | IC50 [3]: 83.3 µM (inactive)

C[C@@H]1CN([C@@H](C)CO)C(=O)c2cc(NC(=O)Nc3ccc(C(F)(F)F)cc3)ccc2O[C@H]1CN(C)CC1CCCCC1
AC50 [16]: 10.6 µM (active) | AC50 [17]: 22 µM (active)
